Measurements taken from patent publication US20040132817A1, “Use of an histone deacetylase inhibitor for the treatment of diseases associated with an hpv infection” (priority 2001, published 2004).

Legend:
[1] = tested on: cyclin D1; test: Western blot of cyclin D1 in HeLa cells; assay type: cell-based, human; details: 6 mM sodium butyrate, 16 hours
Description: (§1) 50 μg of protein were separated on 12% SDS-PAGE minigels. After electrotransfer, the filters were incubated with antibodies against cyclin D1, cyclin E, cyclin A or cdk2, cdk4 or cdk6 specific antibodies. Equal protein loading was confirmed by reincubating the filters with a monoclonal actin antibody.
(§2) Cellular extracts were separated in 8-12% SDS PAGE gels and electrotransferred as described elsewhere (Finzer et al., Oncogene 19 (2000), 3235-3244; Soto et al., Oncogene 18 (1999), 3187-3198). The following antibodies were used: cyclin E (HE 12), cyclin D 1 (HD 11), cdk2 (M2), (D-12; Santa Cruz Biotechnology, Inc., Santa Cruz, USA), cdk4 (C-22), cdk6 (C-21), p27^KIP1 (C-19), (K25020), p45^SKP2 (N-19), HPV18-E7 (N-19) and E2F-1 (KH95) (Santa Cruz Biotechnology, Inc. Santa Cruz, USA), p21^CIP1 (C24420; Transduction Laboratories, Lexington, USA), pRB (NCL-RB; Novocastra, UK), p16^INK4 (15126E, Pharmingen, San Diego, USA) and HPV 16 E7 (ZYMED Lab. Inc., San Francisco, USA). Cyclin A was kindly provided by M. Pagano (Pagano et al., EMBO J. 11 (1992), 961-971). Equal protein transfer and loading was routinely checked by incubating the filters with a monoclonal actin antibody (ICN Biomedicals, Ohio, USA).

[2] = tested on: cdk2; test: Western blot of cdk2 in HeLa cells; assay type: cell-based, human
Description: as §1
(A) Western blot analysis. 75 μg of total cellular protein was loaded on a 12% SDS-PAGE gel. After electrotransfer, the filters were incubated with antibodies directed against HPV18 E7, p21^CIP1 (=p21), p27^KIP1 (=p27) and cdk2.
as §2, with “Equal protein transfer and loading was routinely checked by incubating the filters with a monoclonal actin antibody (ICN Biomedicals, Ohio, USA).” left out

[3] = tested on: pRb; test: Western blot of pRb in HPV16 E6-, E7-, E6/E7-immortalized keratinocytes; assay type: cell-based, human; details: 6 mM sodium butyrate, 16 hours
Description: (§3) Western blot analysis of cellular extracts obtained from E6-, E7-, and E6/E7-Immortalized cells which were separated in 8% (pRb) and 12% SDS-PAGE gels. After electrotransfer, the filters were incubated with pRb, E2F-1, cyclin E and actin antibodies. […] Due to quantitative differences of pRb and cyclin E levels in E7- and E6/E7-positive cells, the filters were exposed for different times.
HPV18-positive cervical Carcinoma cells (HeLa) were maintained in Dulbecco's modified Eagle's medium (DMEM), supplemented with 10% fetal calf serum (Gibco BRL, Rockville, USA), 1% penicillin and streptomycin (Sigma, Deisenhofen, Deutschland). Primary human keratinocytes, immortalized by E6-, E7- and E6/E7-open reading frames carrying amphotroptic retroviruses were cultivated in “Keratinocyte Medium Kit” (Sigma). Human foreskin keratinocytes transformed with HPV-16 E6/E7 either under the control of a human β-actin promoter (,1321″) or under the control of the authentic upstream regulatory region HPV (,1637″) were a kind gift of Dr. R. Schlegel (Georgetown University, Washington, USA) (Münger et al., J. Virol. 63 (1989), 4414-4423; Villa & Schlegel, Virology 181 (1991), 374-377). Cells were grown in 3 parts of keratinocyte-serum free medium (K-SFM, GIBCO, BRL) and 1 part of DMEM containing 10% fetal calf serum (GIBCO, BRL) and 0.75% gentamycin, 0.25% penicillin/streptomycin, respectively
as §2, with “Cyclin A was kindly provided by M. Pagano (Pagano et al., EMBO J. 11 (1992), 961-971). Equal protein transfer and loading was routinely checked by incubating the filters with a monoclonal actin antibody (ICN Biomedicals, Ohio, USA).” left out

[4] = tested on: E2F-1; test: Western blot of E2F-1 in HPV16-immortalized keratinocytes; assay type: cell-based; details: HPV16-immortalized human keratinocytes, 6 mM sodium butyrate, 16 hours
Description: as §3
HPV18-positive cervical Carcinoma cells (HeLa) were maintained in Dulbecco's modified Eagle's medium (DMEM), supplemented with 10% fetal calf serum (Gibco BRL, Rockville, USA), 1% penicillin and streptomycin (Sigma, Deisenhofen, Deutschland). Primary human keratinocytes, immortalized by E6-, E7- and E6/E7-open reading frames carrying amphotroptic retroviruses were cultivated in “Keratinocyte Medium Kit” (Sigma). Human foreskin keratinocytes transformed with HPV-16 E6/E7 either under the control of a human β-actin promoter (,1321″) or under the control of the authentic upstream regulatory region HPV (,1637″) were a kind gift of Dr. R. Schlegel (Georgetown University, Washington, USA) (Münger et al., J. Virol. 63 (1989), 4414-4423; Villa & Schlegel, Virology 181 (1991), 374-377). Cells were grown in 3 parts of keratinocyte-serum free medium (K-SFM, GIBCO, BRL) and 1 part of DMEM containing 10% fetal calf serum (GIBCO, BRL) and 0.75% gentamycin, 0.25% penicillin/streptomycin, respectively […]

[5] = tested on: HPV16 E6/E7 transcription; test: Northern blot of HPV16 transcription in "1637" keratinocytes; assay type: cell-based; details: "1637" cells, NaB
Description: Keratinocytes immortalized with HPV16 E6/E7 either under control of (A) the homologues viral upstream regulatory region (,1637″) or (B) of the β-actin promoter (,1321″) were incubated with NaB for various periods of time. 5 μg of RNA was separated in 1% agarose gels. The filters were hybridized with probes specific for HPV16, p21^CIP1 (=p21), β-actin and GAPDH. The positions of the 28S and 18S ribosomal RNA are indicated. (Contr.): untreated cells.
(A) 5 μg of RNA was separated in 1% agarose gels. The filters were hybridized with HPV 16, p21^CIP1 (=) p21 and GAPDH-specific probes. The positions of the 28S and 18S ribosomal RNA are indicated.
Total cellular RNA was extracted according to the guanidinium-thiocyanate procedure (Chomczynski and Sacchi, Anal. Biochem. 162 (1987), 156-159). Approximately 5 μg RNA were separated on 1% agarose gels in the presence of ethidium bromide under non-denaturing conditions and transferred to GeneScreen Plus membranes (DuPont, Bad Homburg, Deutschland). The filters were hybridized under stringent conditions with specific probes, which were labeled with ^32p-dCTP by random priming (Feinberg and Vogelstein, Anal. Biochem. 137 (1984), 266-267).

`CCCC(=O)[O-].[Na+]` [sodium butyrate] was tested, and the “cyclin D1 protein level” value [1] was “selectively downregulates”, the cdk2 expression ([2]; 6 mM sodium butyrate, 16 hours) was “neither the cyclin-dependent kinase 2 (cdk2) nor cdk4 or cdk6 revealed any significant influence on their expression rates” and the “amount of cdk2, time course” value ([2]; NaB time course) was “completely unaffected”. For the same molecule, the “pRb state in E6-containing keratinocytes” value ([3]; HPV16 E6-immortalized keratinocytes) was “hypophosphorylated”, the “pRb level in E6/E7-immortalized keratinocytes” value ([3]; HPV16 E6/E7-immortalized keratinocytes) was “again revealed pRb degradation” and the “pRb level in E7-expressing keratinocytes” value ([3]; HPV16 E7-immortalized keratinocytes) was “completely disappeared”. For the same molecule, the E2F-1 level [4] was “did not significantly vary” and the “HPV16 mRNA, time course” value [5] was “transient HPV16 mRNA suppression”.
